Test results taken from patent publication US20250235437A1, “PROTEOLYSIS TARGETING CHIMERA (PROTAC) MOLECULE FOR DEGRADATION OF ENL AND CANCER THERAPY” (Baylor College of Medicine, priority 2022, published 2025).
Like-named read-outs stand apart in the source and are kept apart here.

Key:
ENL [1] = target: T1, ENL (Homo sapiens, UniProt Q03111); experiment: ENL degradation in MV4;11 cells (Western blot); assay type: cell-based
T1 construct: tested whether the compounds degrade ENL and AF9 in MV4;11 leukemia cells; endogenous in cells; host or cells: MV4;11; Molm-13
T1 sequence (Q03111 1-559): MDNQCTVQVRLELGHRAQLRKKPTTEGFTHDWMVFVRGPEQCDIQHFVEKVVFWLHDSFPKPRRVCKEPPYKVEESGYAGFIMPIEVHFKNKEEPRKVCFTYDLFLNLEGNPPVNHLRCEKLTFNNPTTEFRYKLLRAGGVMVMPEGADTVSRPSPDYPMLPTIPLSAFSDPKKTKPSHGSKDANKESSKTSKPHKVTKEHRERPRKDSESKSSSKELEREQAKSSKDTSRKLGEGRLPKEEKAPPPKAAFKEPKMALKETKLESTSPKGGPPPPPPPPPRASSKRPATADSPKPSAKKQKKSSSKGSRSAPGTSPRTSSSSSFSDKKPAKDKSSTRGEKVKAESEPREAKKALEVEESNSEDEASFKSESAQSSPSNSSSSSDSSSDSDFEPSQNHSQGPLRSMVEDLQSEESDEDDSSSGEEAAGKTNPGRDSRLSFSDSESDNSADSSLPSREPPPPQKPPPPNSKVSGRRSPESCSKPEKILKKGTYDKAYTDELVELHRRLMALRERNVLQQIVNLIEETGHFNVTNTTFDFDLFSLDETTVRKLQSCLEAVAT
Protocol: (§1) Next, Applicant tested whether the compounds degrade ENL and AF9 in MV4;11 leukemia cells with the .MLL1-AF4 oncogene. Upon compound treatment for 24 h, the cells were washed, lysed, and the lysates subjected to SDS-PAGE (sodium dodecyl sulphate-polyacrylamide gel electrophoresis) followed by detection with Western blot.

ENL [2] = target: T1, ENL; experiment: ENL degradation in Molm-13 cells (Western blot); assay type: cell-based; conditions: Molm-13 cells (MLL1-AF9), 24 h
Protocol: as §1
In addition, compound 1 efficiently degraded ENL in another MLL1-r leukemia Molm-13 cells (with MLL1-AF9) with DC50 of 47 nM and Dmax of ˜88% (FIG. 3E). Moreover, significant ENL degradation can be detected in 2 h and depletion occurred within 24 h (FIG. 3F).

H3K79 methylation = experiment: Nuclear H3K79 methylation in MV4;11 cells, 4 days; assay type: cell-based
Excerpt: Applicant further investigated how compound 1 affects ENL, AF9 and other proteins of SEC in the cytoplasmic and nuclear compartments, the latter of which are more relevant to the functions of these transcription cofactors. […] Upon treatment of MV4;11 cells with these compounds for 4 days, cytoplasmic and nuclear proteins were separated and subjected to SDS-PAGE/Western blot.

ENL [3] = target: T1, ENL; experiment: ChIP-qPCR, ENL at Myc and HoxA9 gene promoters; assay type: cell-based; conditions: 500 nM
Excerpt: (§2) Chromatin immunoprecipitation (ChIP) followed by qPCR was used to further probe the activity of compound 1 in the gene promoters of Myc and HoxA9, two characteristic MLL1 target genes.

[4] = system: AF9, AFF4, cyclin-T1 and H3K79me2; experiment: ChIP-qPCR, AF9, AFF4, cyclin-T1 and H3K79me2 at Myc and HoxA9 gene promoters; assay type: cell-based; conditions: 500 nM
Excerpt: as §2

Molm-13 cells [5] = experiment: Anti-proliferative activity, Molm-13 cells; assay type: cell-based; conditions: Molm-13 cells, FIG. 6B
Hela cell [6] = experiment: Anti-proliferative activity, Hela cells; assay type: cell-based; conditions: Hela (cervical) cells; read-out: EC50, proliferation
[7] = In vivo toxicity in C57BL/6 mice; conditions: 30 mg/kg/day for 13 days
Protocol: In vivo antitumor activity of compound 1 was evaluated in a commonly used mouse model of Molm-13 leukemia. First, in vivo toxicity was assessed in C57BL/6 mice.

Molm-13 leukemia = experiment: Subcutaneous Molm-13 leukemia xenograft in NOD-SCID mice; assay type: in vivo
Protocol: In vivo antitumor activity of compound 1 was evaluated in a commonly used mouse model of Molm-13 leukemia. First, in vivo toxicity was assessed in C57BL/6 mice. […] Next, 10^6 Molm-13 cells were injected subcutaneously into NOD-SCID mice, which developed palpable tumors in ˜1 week and grew rapidly.

HoxA11 and HoxA13 = experiment: mENL-driven HoxA11 and HoxA13 expression in HEK293T cells; assay type: cell-based; design: dose or concentration left out as unconfirmed; conditions: 24 h incubation
Excerpt: Next, Applicant investigated how mENL degradation affect expression of HoxA11 and HoxA13 in this cell model.

RPMI-8226 cells = experiment: Gene profiling and GSEA in RPMI-8226 cells; assay type: cell-based; conditions: 500 nM for 4 days
ENL [8] = target: T1, ENL; experiment: ENL degradation in MV4;11 cells (Western blot); assay type: cell-based; conditions: 500 nM
Molm-13 cells [9] = conditions: Molm13 cells, footnote b: reported in Li, et al. J Hematol Oncol, 2022; read-out: Anti-proliferative activity EC50, Molm13; cited from earlier work
MV4;11 cells = conditions: footnote b: reported in Li, et al. J Hematol Oncol, 2022, read-out: Anti-proliferative activity EC50, MV4; cited from earlier work
Hela cell [10] = conditions: Hela cells, footnote b: reported in Li, et al. J Hematol Oncol, 2022; read-out: Anti-proliferative activity EC50, Hela; cited from earlier work

SMILES: C[C@H]1CCCN1Cc1nc2cc(NC(=O)c3ccc4c(cnn4CCCCCCCCNc4cccc5c4C(=O)N(C4CCC(=O)NC4=O)C5=O)c3)ccc2[nH]1 (stereo partly shown) [Compound 1]
- Dmax (maximal degradation), ENL (ENL [1]; 24 h treatment): ~95%
- concentration at which ENL is almost depleted (ENL [1]; 24 h treatment): ~500 nM
- DC50 (ENL [1]; 24 h treatment, read-out: DC50 (concentration at which a protein is reduced by 50%), ENL): 37 nM
- concentration of maximal ENL-degrading activity (ENL [1]; FIG. 3D): ~500 nM
- concentrations at which ENL level started to recover (hook effect) (ENL [1]; FIG. 3D): 1 to 10 µM
- DC50 (ENL [2]): 47 nM
- Dmax, ENL (ENL [2]): ~88%
- nuclear levels of H3K79 methylation (H3K79 methylation): not consistently affected
- ENL levels at Myc and HoxA9 gene promoters (ENL [3]): significantly reduced
- AF9, AFF4, cyclin-T1 and H3K79me2 at Myc and HoxA9 gene loci [4]: did not significantly lower down
- time-dependent activity against cell proliferation (Molm-13 cells [5]): did not inhibit cell proliferation during the first 4 days
- EC50 (Hela cell [6]): > 50 µM
- body weight [7]: did not cause significant weight losses
- hematopoiesis and overt toxicities [7]: did not inhibit normal hematopoiesis or cause other overt toxicities
- blood cell counts vs control ([7]; blood test on day-14): no significant differences in blood cell counts
- body weight (Molm-13 leukemia; 30 mg/kg/day for Day 3-15): did not cause significant weight losses
- tumor growth (Molm-13 leukemia; 30 mg/kg/day for Day 3-15): significantly inhibited tumor growth
- animal survival (Molm-13 leukemia; 30 mg/kg/day for Day 3-15, p<0.01): prolonged animal survivals
- overexpression of HoxA11 and HoxA13 (HoxA11 and HoxA13): significantly inhibited overexpression of HoxA11 and HoxA13
- expression of MYC target gene set (GSEA) (RPMI-8226 cells): significantly down-regulated
- time at which significant ENL degradation can be detected (ENL [8]): 2 h
- time to ENL depletion (ENL [8]): ≤ 24 h
- EC50 (Molm-13 cells [9]): 320 nM
- EC50 (MV4;11 cells): 570 nM
- EC50 (Hela cell [10]): > 50 µM
